According to US3988340A, “6-Alkoxymethyl-1,2,3,5-tetrahydroimidazo[2,1-b]quinazolin-2-ones and 7-alkoxymethyl-6-[H]-1,2,3,4-tetrahydropyrimido[2,1-b]quinazolin-2-ones” (Bristol-Myers Company, priority 1975, dated 1976):
Values after ≈ are worked out from the molar mass of the structure shown. Read-outs that look alike come from different tables or passages of the source.

How the values were obtained:
[1] = Crystal formation in the liver of dogs at very high doses; assay type: in vivo, dog; conditions: compound or a metabolite
[2] = Hypotensive activity compared with BL-3459; assay type: in vivo; conditions: associated with antiaggregative activity; versus BL-3459
Dog Platelet Rich Plasma [3] = experiment: Ex vivo ADP induced platelet aggregation in dog PRP after oral drug administration; conditions: Canis lupus familiaris, PRP obtained before and 1 hr. after oral drug administration, read-out: ED50, ex vivo inhibition of ADP induced aggregation
Method: BL-4784A was also tested ex vivo in dogs where ADP was used to induce aggregation in PRP samples obtained before and 1 hr. after oral drug administration.
Before dosing the animals, blood samples are taken. The blood is centrifuged to obtain the blood platelet-rich plasma. Aggregation of this plasma is induced with ADP or collagen. This is the control.
The animals are then dosed with the compounds to be tested (orally or parenterally). Depending upon the route of administration, one to two hours are allowed to elapse after dosing. Blood is drawn and the same procedure as for the control in untreated animals.
The dose required to produce 50% inhibition of the aggregation is determined by dose response data obtained in this manner.

[4] = In vivo solubility of compound or metabolite; assay type: physicochemical; conditions: compound or its metabolite, versus BL-3459
[5] = system: blood platelet aggregation; experiment: Blood platelet antiaggregative potency compared with BL-3459; conditions: versus BL-3459
[6] = system: biolaser induced thrombosis; experiment: Biolaser induced thrombosis in the rabbit ear chamber; assay type: in vivo
From the text: (§1) Methodology for these three in vivo techniques has been previously reported (4, 5).

Dog Platelet Rich Plasma [7] = experiment: In vitro inhibition of ADP induced platelet aggregation in the aggregometer, dog platelet rich plasma; assay type: cell-based; conditions: Canis lupus familiaris, read-out: EC50 & 95% Confidence Limits
[8] = system: Rabbit Platelet Rich Plasma; experiment: In vitro inhibition of induced platelet aggregation in the aggregometer, rabbit platelet rich plasma; assay type: cell-based; conditions: Oryctolagus cuniculus, read-out: EC50 & 95% Confidence Limits
Method: The aggregometer method of Born (1), as modified by Mustard et al. (2) was used to assess the in vitro activity of the various compounds as to inhibition of adenosine diphosphate (ADP) and collagen induced platelet aggregation. Platelet rich plasma was separated by centrifugation from citrated (3.8 percent) rabbit blood. […] (3) was used to induce aggregation. The various compounds tested were dissolved in dimethylsulfoxide (DMSO) so that 5 mcl. added to the platelet rich plasma would yield the desired test concentration. Vehicle control trials were done and compared with aggregation induced in platelet rich plasma containing various concentrations of the test compounds. Dose response curves were obtained and Effective Concentration (EC50) values calculated.
Compound 12a (BL-4784A) has been evaluated in a series of in vitro, ex vivo and in vivo animal models of platelet aggregation and thrombosis.

[9] = Crystal deposits in tissues of animal species evaluated; assay type: in vivo; conditions: any tissue of any animal species evaluated up to the present time
[10] = system: electrically induced carotid artery thrombosis; experiment: Electrically induced carotid artery thrombosis in the dog; assay type: in vivo; conditions: Canis lupus familiaris, po
From the text: as §1

[11] = Mean aortic blood pressure in rats after oral administration; assay type: in vivo; conditions: 50 mg/kg oral; for Mean Aortic Blood Pressure % Change / Mean Aortic Blood Pressure: N=9, mean ± 1 S.E.
Method: The blood pressure of unanesthetized rats and dogs was measured directly by means of a transducer attached to an intra-arterial cannula and in anesthetized dogs by a mercury manometer attached to a carotid cannula.
The compounds of the instant invention were tested as the hydrochloride salts by the above method in normotensive rats in doses of 50 mg./kg. orally.
Compound 12a (BL-4784a) was tested for its hypotensive activity in rats as follows:
Rats were dosed orally with the test drug (50 mg/kg) or saline and blood pressure measurements were made at 30, 90, 150 and 300 mins. after drug administration.
Saline administration in a volume equivalent to drug administration had only a minimal effect.

Structure (SMILES): Cc1cccc2c1CN1CC(=O)NC1=N2 [BL-3459]
- Crystal formation in liver [1]: formed crystals in the liver of dogs at very high doses

Structure (SMILES): COCc1cccc2c1CN1CC(=O)NC1=N2 [Compound 12a, 6-(α-methoxymethyl)-1,2,3,5-tetrahydroimidazo[2,1-b]quinazolin-2-one]
- Degree of hypotensive activity [2]: lower degree of hypotensive activity
- ED50 (Dog Platelet Rich Plasma [3]): 1.79 mg/kg
- Solubility in vivo [4]: more soluble in vivo
- Potency as blood platelet antiaggregate [5]: more potent than BL-3459
- ED50 ([6]; Oryctolagus cuniculus, rabbit ear chamber, po): 5.3 mg/kg
- Activity in in vivo animal models of thrombosis ([6]; result in words for three in vivo animal models): significant activity in three in vivo animal models
- EC50 (Dog Platelet Rich Plasma [7]): 0.19 µg/mL (≈ 0.822 µM)
- EC50 ([8]; ADP induced (2.93 × 10^-5 M)): 0.2 µg/mL (≈ 0.865 µM)
- EC50 ([8]; Antigen-Antibody complex (egg albumin, 2 μg/ml), PRP from sensitized rabbits): 0.13 µg/mL
- EC50 ([8]; Arachidonic acid induced (50 μg/ml)): 0.27 µg/mL (≈ 1.17 µM)
- EC50 ([8]; Collagen induced): 0.09 µg/mL (≈ 0.389 µM)
- EC50 ([8]; Thrombin induced (1 unit per ml)): 0.63 µg/mL (≈ 2.72 µM)
- Crystal deposits in tissue [9]: no crystal deposits have been observed in any tissue of any animal species
- ED50 [10]: 10.5 mg/kg
- Aortic blood pressure lowering ([11]; result in words): significant lowering of aortic blood pressure
- Mean Aortic Blood Pressure % Change ([11]; 30 min): -33 ± 4%
- Mean Aortic Blood Pressure ([11]; 30 min, *P = <.05): 73 ± 5 mm Hg
- Mean Aortic Blood Pressure % Change ([11]; 90 min): -27 ± 4%
- Mean Aortic Blood Pressure ([11]; 90 min, *P = <.05): 79 ± 3 mm Hg
- Mean Aortic Blood Pressure % Change ([11]; 150 min): -23 ± 2%
- Mean Aortic Blood Pressure ([11]; 150 min, *P = <.05): 84 ± 3 mm Hg
- Mean Aortic Blood Pressure % Change ([11]; 300 min): -20 ± 4%
- Mean Aortic Blood Pressure ([11]; 300 min, *P = <.05): 87 ± 3 mm Hg
- Mean Aortic Blood Pressure ([11]; time 0 min (before drug)): 111 ± 3 mm Hg
